Test results reported in paper PMC10111413 (ACS Infectious Diseases, 2023).

What was measured:
Assay type in all cases: cell-based
A. baumannii BV95 = conditions: CLSI, cation-adjusted MHB, 18 h at 37 °C, three technical replicates
Method: (§1) VIII. Antimicrobial testing
(§2) Table S2. Minimum inhibitory concentrations (MICs) determined against panel of previously characterized colistin-resistant A. baumannii clinical isolates5
(§3) Strain Relacidine A (3a) Relacidine B (4a) Relacidamide (5) Colistin […]
(§4) aMIC values given in µg/ml.
(§5) All minimum inhibitory concentrations were determined according to Clinical and Standards Laboratory Institute (CLSI) guidelines. Blood agar plates were inoculated from glycerol stocks of the different A. baumannii strains used and then incubated for 16 h at 37 °C . Individually grown colonies were subsequently used to inoculate 5 mL aliquots of TSB that were then incubated at 37 °C. In parallel, the lipopeptide antibiotics DMSO stocks to be assessed were serially diluted with cation-adjusted MHB in polypropylene 96-well plates (50 µL in each well). Colistin sulfate stocks were dissolved in water before being diluted with cation-adjusted MHB. The A. baumannii inoculated TSB aliquots were incubated until an OD600 of around 0.5 was reached. The bacterial suspensions were then diluted with cation-adjusted MHB (2 x 10^5 CFU mL-1) and added to the microplates containing the test compounds (50 µL to each well). The well-plates were sealed with an adhesive membrane and after 18 h of incubation at 37 °C visually inspected for bacterial growth. MIC values reported are based on three technical replicates and defined as the lowest concentration of the compound that prevented visible

A. baumannii BV173 = conditions: CLSI, cation-adjusted MHB, 18 h at 37 °C, three technical replicates
Method: as §1, §2, §3, §4, §5

A. baumannii HUMC1 = conditions: CLSI, cation-adjusted MHB, 18 h at 37 °C, three technical replicates
Method: as §1, §2, §3, §4, §5

A. baumannii LAC-4 = conditions: CLSI, cation-adjusted MHB, 18 h at 37 °C, three technical replicates
Method: as §1, §2, §3, §4, §5

A. baumannii NCTC 13304 = conditions: CLSI, cation-adjusted MHB, 18 h at 37 °C, three technical replicates
Method: as §1, §2, §3, §4, §5

A. baumannii ATCC 17978 = conditions: CLSI, cation-adjusted MHB, 18 h at 37 °C, three technical replicates
Method: as §1, §2, §3, §4, §5

A. baumannii NCTC 13420 = conditions: CLSI, cation-adjusted MHB, 18 h at 37 °C, three technical replicates
Method: as §1, §2, §3, §4, §5

A. baumannii BV94 = conditions: colistin-resistant clinical isolate; CLSI, cation-adjusted MHB, 18 h at 37 °C, three technical replicates
Method: as §1, §2, §3, §4, §5

A. baumannii BV172 = conditions: CLSI, cation-adjusted MHB, 18 h at 37 °C, three technical replicates
Method: as §1, §2, §3, §4, §5

E. coli ATCC 25922 mcr-1 = conditions: CLSI microbroth dilution, Mueller Hinton broth, 18 h at 37 °C, visual read-out, three technical replicates; mcr-1 colistin resistance plasmid
Method: (§6) The antibacterial activities of relacidine A (3a) and B (4a), along with diastereomers 3b and 4b–d and relacidamide (5), were assessed using a standard microbroth dilution assay to establish minimum inhibitory concentration (MIC) values against a panel of Gram-negative bacteria (Table 1). The MIC values measured for synthetic relacidine A (3a) and B (4a) agree well with those previously published.[9] […] Relacidine A (3a) and B (4a), as well as relacidamide (5), were further tested against a panel of colistin-resistant A. baumannii clinical isolates, which confirmed their ability to prevent the growth of colistin-resistant isolates (Supplemental Table S2). […] Also of interest was the finding that while relacidine B (4a) induced <1% hemolysis, a substitution of either the L-Ala or L-Ser to D-Ala or D-Ser increased hemolytic activity to 8–12%. […] The greater hydrolytic stability of relacidine B would appear to be attributable to the increased steric bulk of the Ala side chain next to the ester linkage (compared with the methylene of Gly in relacidine A), which may hinder the nucleophilic attack of water at the ester carbonyl.
(§7) Colistin sulfate was purchased from Activate Scientific. Kanamycin monosulfate was purchased from MP Biomedicals. E. coli ATCC 25922, S. aureus USA300 (ATCC BAA1717), and K. pneumoniae ATCC 13883 belong to the American Type Culture Collection (ATCC). P. aeruginosa PAO1 was kindly provided by L.H.C. Quarles Van Ufford of Utrecht University, Utrecht, The Netherlands. E. coli ATCC 25922 MCR-1 was transfected in-house using the pGDP2-MCR1 plasmid kindly provided by Yong-Xin Li of The University of Hong Kong, Hong Kong, China. Sheep blood agar plates (ref. PB5039A) were purchased from Thermo Scientific. Tryptic soy broth (ref. 02-200-500) was purchased from Scharlab. Mueller-Hinton broth (ref. X927.1) was purchased from Carl Roth. Polypropylene 96-wells plates (ref. 3879) were purchased from Corning.
(§8) MICs were determined according to Clinical and Standards Laboratory Institute (CLSI) guidelines. Blood agar plates were inoculated with glycerol stocks of E. coli ATCC 25922, K. pneumoniae ATCC 13883, P. aeruginosa PAO1, and S. aureus USA300. The inoculated agar plates were then incubated for 16 h at 37 °C. Individually grown colonies were subsequently used to inoculate 5 mL aliquots of tryptic soy broth (TSB) that were then incubated at 37 °C with shaking at 220 rpm. E. coli 25922 MCR-1 glycerol stock was used to inoculate 5 mL of TSB supplemented with kanamycin that was then incubated for 16 h at 37 °C with shaking at 220 rpm. The next day, the culture was diluted 100-fold in TSB supplemented with kanamycin and incubated at 37 °C with shaking at 220 rpm. In parallel, the lipopeptide antibiotic DMSO stocks to be assessed were serially diluted with Mueller Hinton broth (MHB) in polypropylene 96-well plates (50 μL in each well). Colistin sulfate stocks were dissolved in water before being diluted with MHB. Aliquots of the inoculated TSB were incubated until an OD600 of around 0.5 was reached. The bacterial suspensions were then diluted with MHB (2 × 10^5 cfu mL^–1) and added to the microplates containing the test compounds (50 μL to each well). The well plates were sealed with an adhesive membrane, and after 18 h of incubation at 37 °C with shaking at 600 rpm, the wells were visually inspected for bacterial growth. MIC values reported are based on three technical replicates and defined as the lowest concentration of the compound that prevented visible growth of bacteria.

K. pneumoniae ATCC 13883 = conditions: CLSI microbroth dilution, Mueller Hinton broth, 18 h at 37 °C, visual read-out, three technical replicates
Method: as §6, §7, §8

S. aureus USA300 = conditions: CLSI microbroth dilution, Mueller Hinton broth, 18 h at 37 °C, visual read-out, three technical replicates
Method: as §6, §7, §8

E. coli ATCC 25922 = conditions: CLSI microbroth dilution, Mueller Hinton broth, 18 h at 37 °C, visual read-out, three technical replicates
Method: as §6, §7, §8

P. aeruginosa PAO1 = conditions: CLSI microbroth dilution, Mueller Hinton broth, 18 h at 37 °C, visual read-out, three technical replicates
Method: as §6, §7, §8

## colistin [reference compound]
A. baumannii BV95
  MIC A. baumannii BV95: 32 µg/mL
A. baumannii BV173
  MIC A. baumannii BV173: 16 µg/mL
A. baumannii HUMC1
  MIC A. baumannii HUMC1: 1 µg/mL
A. baumannii LAC-4
  MIC A. baumannii LAC-4: 0.5 µg/mL
A. baumannii NCTC 13304
  MIC A. baumannii NCTC 13304: 1 µg/mL
A. baumannii ATCC 17978
  MIC A. baumannii ATCC 17978: 1 µg/mL
A. baumannii NCTC 13420
  MIC A. baumannii NCTC 13420: 0.5 µg/mL
A. baumannii BV94
  MIC A. baumannii BV94: > 64 µg/mL
A. baumannii BV172
  MIC A. baumannii BV172: > 64 µg/mL
E. coli ATCC 25922 mcr-1
  MIC E. coli ATCC 25922 mcr-1: 4 µg/mL
K. pneumoniae ATCC 13883
  MIC K. pneumoniae ATCC 13883: 0.25 to 0.5 µg/mL
S. aureus USA300
  MIC S. aureus USA300: >32 µg/mL
E. coli ATCC 25922
  MIC E. coli ATCC 25922: 1 µg/mL
P. aeruginosa PAO1
  MIC P. aeruginosa PAO1: 1 µg/mL
